Experimental data reported in publication PMC10503797, “Allosteric modulator potentiates β2AR agonist–promoted bronchoprotection in asthma models” (The Journal of Clinical Investigation, 2023).
“And” between values parts separate entries of the source, which are not always exact repeats. Identical values can stand only once.

Columns and labels:
guinea pig lung slices = assay: Methacholine-induced airway constriction in guinea pig lung slices; type: cell-based; design: key to MCh-induced airway constriction response (Figure 5D): % of initial (baseline) airway luminal area; conditions: for MCh-induced airway constriction response (Figure 5D): 10 µM Fenoterol + 25 µM Cmp6, Exp1-6
Protocol: All curve fits were generated using the software program GraphPad Prism. Data are represented as mean ± SEM obtained from 6 guinea pigs.
(§1) Precision-cut lung slices were prepared as described previously ([61], [62]). A 3% solution of low melting-point agarose (Gerbu Biotechnik GmbH) in ultrapure water was prepared by heating it a microwave until fully dissolved. […] After filling, the lungs were covered with ice for 30 minutes to solidify the agarose for slicing. […] Lung slices were cut at a thickness of 500 μm and washed several times with slicing buffer to remove debris and washout the isoproterenol. Slices were incubated overnight in a 60 mm dish in sterile incubation buffer: MEM composed of lung slice buffer supplemented with 0.5 mM sodium pyruvate, 1 mM glutamine (Gibco), MEM-amino acids mixture (1:50), MEM-vitamins mixture (1:100; Gibco), and penicillin-streptomycin (1:100; Gibco), pH = 7.2, at 37°C in a CO2- and humidity-controlled atmosphere.
(§2) After washing the slices in medium, individual guinea pig lung slices were mechanically maintained with a Teflon ring with an inner diameter of 7 mm and covered with 1 mL of incubation buffer. […] Image acquisition software (NIS-Elements, Nikon) was used to quantify airway luminal area. Images of the airways were acquired every 2 seconds during the whole course of the experiment, starting 2 minutes before the addition of any agent to allow for baseline measurements of the airway caliber. For each methacholine or ovalbumin concentration, the maximal airway constriction was expressed as percentage of the initial (baseline) airway luminal area and plotted against that concentration.

V133F mutant murine β2AR = V133F mutant murine β2AR (Mus musculus, UniProt P18762, V133F); assay: 125I-CYP radioligand competition binding, V133F mutant murine β2AR; conditions: V133F DMSO
Sequence of V133F mutant murine β2AR (P18762 whole entry V133F): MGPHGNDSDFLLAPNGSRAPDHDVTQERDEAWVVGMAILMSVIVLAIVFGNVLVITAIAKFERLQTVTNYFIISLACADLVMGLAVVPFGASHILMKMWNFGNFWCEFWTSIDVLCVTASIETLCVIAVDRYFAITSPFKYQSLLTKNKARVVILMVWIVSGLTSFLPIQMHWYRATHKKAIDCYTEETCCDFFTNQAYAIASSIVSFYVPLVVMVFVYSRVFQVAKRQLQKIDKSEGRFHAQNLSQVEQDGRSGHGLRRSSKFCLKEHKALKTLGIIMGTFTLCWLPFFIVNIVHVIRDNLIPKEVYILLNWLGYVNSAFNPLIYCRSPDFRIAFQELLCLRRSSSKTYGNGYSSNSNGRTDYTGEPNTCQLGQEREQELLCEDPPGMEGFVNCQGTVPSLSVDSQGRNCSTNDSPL
Protocol: (§3) Statistical analyses were performed using 1-way ANOVA, repeated (related) measures with Tukey’s posthoc test.

guinea pig β2AR = guinea pig β2AR (Cavia porcellus, UniProt Q8K4Z4); assay: 125I-CYP radioligand competition binding, guinea pig β2AR; conditions: DMSO
Sequence of guinea pig β2AR (Q8K4Z4 whole entry): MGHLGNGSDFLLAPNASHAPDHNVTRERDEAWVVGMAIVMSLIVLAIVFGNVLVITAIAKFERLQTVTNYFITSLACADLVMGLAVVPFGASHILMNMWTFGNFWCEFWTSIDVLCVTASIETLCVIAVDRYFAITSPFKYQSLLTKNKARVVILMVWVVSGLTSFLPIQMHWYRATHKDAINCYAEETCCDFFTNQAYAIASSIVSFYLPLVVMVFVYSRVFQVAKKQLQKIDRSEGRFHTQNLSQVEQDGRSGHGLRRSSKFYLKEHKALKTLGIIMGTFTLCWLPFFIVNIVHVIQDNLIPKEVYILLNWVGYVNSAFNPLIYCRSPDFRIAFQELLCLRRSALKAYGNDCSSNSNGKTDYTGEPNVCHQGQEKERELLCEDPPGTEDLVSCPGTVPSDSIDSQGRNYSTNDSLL

WT murine β2AR = WT murine β2AR (Mus musculus, UniProt P18762); assay: 125I-CYP radioligand competition binding, WT murine β2AR; conditions: WT DMSO
Sequence of WT murine β2AR (P18762 whole entry): as the sequence (P18762 whole entry V133F) above, with F133V counted along it
Protocol: as §3

[1] = tested on: lung slices obtained from ovalbumin-sensitized guinea pigs; assay: Ovalbumin-induced airway constriction in lung slices from ovalbumin-sensitized guinea pigs; type: cell-based, guinea pig; conditions: ovalbumin-sensitized guinea pigs; no treatment
Source text: All curve fits were generated using the software program GraphPad Prism. Data are represented as mean ± SEM of 4–5 guinea pigs (see Table 2 for statistical analyses).
Outbred, male, specified pathogen-free Dunkin Hartley guinea pigs (Charles River Laboratory) weighing 200 to 400 g were used. The animals were housed in pairs under a 12-hour light/dark cycle in a temperature- and humidity-controlled room with food and tap water ad libitum. For studies in the guinea pig model of allergic asthma, animals were actively IgE-sensitized to ovalbumin by injecting a suspension containing 100 μg/mL ovalbumin and 100 mg/mL Al(OH)3 in saline. Each animal was injected with 1.0 mL of suspension: 0.5 mL was injected i.p. and 0.5 mL was divided over 7 s.c. sites close to lymph nodes in the neck, paws, and lumbar regions ([24]). Animals were euthanized at least 4 weeks after sensitization.
as §1, §2

Q: For `COc1ccc(Sc2ccc(S(=O)(=O)N(C)C(C)C)cc2C(=O)N[C@H](CC(N)=O)Cc2ccc(C(C)(C)C)cc2)cc1` [Cmp6], which “MCh-induced airway constriction response (Figure 5D)” value (guinea pig lung slices; -Log [MCh] 6.5) is on record?
A: Its value is 84.9 and 96.3 and 94.4 and 89.0 and 84.3.

Q: What about the “MCh-induced airway constriction response (Figure 5D)” value (guinea pig lung slices; -Log [MCh] 7) of the same molecule?
A: The value was 103.8 and 101.2 and 95.0 and 101.0 and 99.7.

Q: What about the “MCh-induced airway constriction response (Figure 5D)” value (guinea pig lung slices; -Log [MCh] 7.5) of the same molecule?
A: Its value is 104.7 and 102.5 and 101.8 and 96.6 and 103.6 and 102.8.

Q: And the “MCh-induced airway constriction response (Figure 5D)” value (guinea pig lung slices; -Log [MCh] 8)?
A: Its value is 105.1 and 102.7 and 102.2 and 96.3 and 103.7 and 102.1.

Q: For `CC(C)NCC(O)c1ccc(O)c(O)c1` (stereo not shown) [ISO, isoproterenol, reference compound], which “125I-CYP binding (% of maximal)” value (V133F mutant murine β2AR; log[ISO] -4 M) is on record?
A: Its value is -0.1642% and -0.422% and -0.2235% and 0.05522%.

Q: And the “125I-CYP binding (% of maximal)” value (V133F mutant murine β2AR; log[ISO] -4.49485 M)?
A: The value was 1.355% and 1.539% and 1.229% and 0.6906%.

Q: And the “125I-CYP binding (% of maximal)” value (V133F mutant murine β2AR; log[ISO] -5.09691 M)?
A: The value was 4.785% and 4.497% and 3.5069% and 4.749%.

Q: And the “125I-CYP binding (% of maximal)” value (V133F mutant murine β2AR; log[ISO] -5.69897 M)?
A: The value was 14.8509% and 14.5905% and 12.5433% and 13.7771%.

Q: What about the “125I-CYP binding (% of maximal)” value (V133F mutant murine β2AR; log[ISO] -6.30103 M) of the same molecule?
A: The value was 36.9962% and 34.2695% and 32.8754% and 34.2526%.

Q: And the “125I-CYP binding (% of maximal)” value (V133F mutant murine β2AR; log[ISO] -6.90309 M)?
A: Its value is 66.198% and 62.9489% and 57.7767% and 62.1859%.

Q: And the “125I-CYP binding (% of maximal)” value (V133F mutant murine β2AR; log[ISO] -7.50515 M)?
A: Its value is 86.6591% and 87.6539% and 79.9524% and 86.2876%.

Q: And the “125I-CYP binding (% of maximal)” value (V133F mutant murine β2AR; log[ISO] -8.10721 M)?
A: The value was 96.9071% and 95.4546% and 94.0497% and 96.919%.

Q: And the “125I-CYP binding (% of maximal)” value (V133F mutant murine β2AR; log[ISO] -8.70927 M)?
A: Its value is 99.4994% and 99.6962% and 98.92% and 100.879%.

Q: What about the “125I-CYP binding (% of maximal)” value (V133F mutant murine β2AR; log[ISO] -9.31133 M) of the same molecule?
A: Its value is 99.9887% and 99.7215% and 100.53% and 99.951%.

Q: And the “125I-CYP binding (% of maximal)” value (V133F mutant murine β2AR; log[ISO] -9.91339 M)?
A: The value was 102.257% and 101.759% and 102.441% and 98.1746%.

Q: And the “125I-CYP binding, ISO competition curve (Figure 4B)” value (“125I-CYP binding … (Figure 4B)” for short) (guinea pig β2AR; Log [ISO] (M) -4.49485)?
A: Its value is 1.551 and 1.783 and 2.036 and 2.11 and 1.706.

Q: And the “125I-CYP binding … (Figure 4B)” value (guinea pig β2AR; Log [ISO] (M) -5.09691)?
A: Its value is 4.5383 and 7.032 and 7.563 and 7.078 and 5.303.

Q: And the “125I-CYP binding … (Figure 4B)” value (guinea pig β2AR; Log [ISO] (M) -5.69897)?
A: The value was 13.7083 and 20.96 and 21.5014 and 20.9933 and 15.5868.

Q: And the “125I-CYP binding … (Figure 4B)” value (guinea pig β2AR; Log [ISO] (M) -6.90309)?
A: The value was 63.0711 and 57.4939 and 78.0004 and 74.7226 and 70.0255.

Q: And the “125I-CYP binding … (Figure 4B)” value (guinea pig β2AR; Log [ISO] (M) -7.50515)?
A: Its value is 85.6262 and 93.2237 and 94.6971 and 93.7843 and 89.3743.

Q: What about the “125I-CYP binding … (Figure 4B)” value (guinea pig β2AR; Log [ISO] (M) -8.10721) of the same molecule?
A: Its value is 99.3825 and 97.8919 and 98.1464 and 96.8121 and 98.8078.

Q: And the “125I-CYP binding … (Figure 4B)” value (guinea pig β2AR; Log [ISO] (M) -8.70927)?
A: Its value is 98.4434 and 97.4234 and 99.4183 and 101.041 and 99.2113.

Q: And the “125I-CYP binding … (Figure 4B)” value (guinea pig β2AR; Log [ISO] (M) -9.31133)?
A: The value was 100.682 and 98.3967 and 100.968 and 99.8594 and 99.9768.

Q: And the “125I-CYP binding … (Figure 4B)” value (guinea pig β2AR; Log [ISO] (M) -9.91339)?
A: The value was 97.8042 and 98.3188 and 100.175 and 101.941 and 100.458.

Q: And the “125I-CYP binding (% of maximal)” value (WT murine β2AR; log[ISO] -4 M)?
A: Its value is -0.1438% and -0.4111% and -0.227% and -0.3498%.

Q: What about the “125I-CYP binding (% of maximal)” value (WT murine β2AR; log[ISO] -4.49485 M) of the same molecule?
A: The value was 2.592% and 1.529% and 1.507% and 1.987%.

Q: What about the “125I-CYP binding (% of maximal)” value (WT murine β2AR; log[ISO] -5.09691 M) of the same molecule?
A: The value was 7.083% and 4.639% and 5.507% and 5.149%.

Q: What about the “125I-CYP binding (% of maximal)” value (WT murine β2AR; log[ISO] -5.69897 M) of the same molecule?
A: The value was 19.715% and 17.6774% and 15.359% and 15.8985%.

Q: What about the “125I-CYP binding (% of maximal)” value (WT murine β2AR; log[ISO] -6.30103 M) of the same molecule?
A: The value was 44.1973% and 39.2701% and 36.5787% and 38.852%.

Q: And the “125I-CYP binding (% of maximal)” value (WT murine β2AR; log[ISO] -6.90309 M)?
A: Its value is 69.5556% and 67.7036% and 62.3553% and 65.7463%.

Q: What about the “125I-CYP binding (% of maximal)” value (WT murine β2AR; log[ISO] -7.50515 M) of the same molecule?
A: The value was 90.4216% and 85.9767% and 84.6762% and 89.3527%.

Q: And the “125I-CYP binding (% of maximal)” value (WT murine β2AR; log[ISO] -8.10721 M)?
A: The value was 98.0111% and 97.6178% and 94.6894% and 94.0001%.

Q: And the “125I-CYP binding (% of maximal)” value (WT murine β2AR; log[ISO] -8.70927 M)?
A: The value was 99.06% and 99.1113% and 98.9767% and 100.68%.

Q: And the “125I-CYP binding (% of maximal)” value (WT murine β2AR; log[ISO] -9.31133 M)?
A: Its value is 98.5309% and 100.484% and 102.846% and 102.836%.

Q: What about the “125I-CYP binding (% of maximal)” value (WT murine β2AR; log[ISO] -9.91339 M) of the same molecule?
A: The value was 103.967% and 101.665% and 101.826% and 99.0182%.

Q: For `CC(=O)OC(C)C[N+](C)(C)C` (stereo not shown) [Methacholine, methacholine], which EC50 (guinea pig lung slices; Cavia porcellus, naive guinea pigs, no treatment, read-out: EC50 of airway constriction) is on record?
A: The EC50 was 250 ± 60 nM.

B1: Ovalbumin: the allergen used in IgE-sensitized guinea pigs (protein, UniProt P01012 2-386, looked up)
Ovalbumin: GSIGAASMEFCFDVFKELKVHHANENIFYCPIAIMSALAMVYLGAKDSTRTQINKVVRFDKLPGFGDSIEAQCGTSVNVHSSLRDILNQITKPNDVYSFSLASRLYAEERYPILPEYLQCVKELYRGGLEPINFQTAADQARELINSWVESQTNGIIRNVLQPSSVDSQTAMVLVNAIVFKGLWEKAFKDEDTQAMPFRVTEQESKPVQMMYQIGLFRVASMASEKMKILELPFASGTMSMLVLLPDEVSGLEQLESIINFEKLTEWTSSNVMEERKIKVYLPRMKMEEKYNLTSVLMAMGITDVFSSSANLSGISSAESLKISQAVHAAHAEINEAGREVVGSAEAGVDAASVSEEFRADHPFLFCIKHIATNAVLFFGRCVSP
Q: B1 was tested. Which “EC50 of airway constriction” value [1] did it give?
A: Its value is 8.0 ± 2.4 ng/mL.
